According to paper PMC10894229, “Novel antimicrobial peptides against Cutibacterium acnes designed by deep learning” (Scientific Reports, 2024):
Read-outs that look alike come from different tables or passages of the source. Ends that are not written are not given here.

Columns and labels:
[1] = tested on: human keratinocytes (HaCaT); assay: HaCaT cell viability, CCK-8 assay; assay type: cell-based
Method: HaCaT (IM-H225) cells from Xiamen Immocell Biotechnology Co., Ltd were cultured in DMEM high glucose medium (4.5 g/L, Gibco, USA), supplemented with 10% fetal bovine serum (Gibco, USA), 100 U/mL of penicillin and 100 μg/mL of streptomycin in a 5% CO2 fully humidified environment at 37 °C.
Cell Counting Kit-8 (CCK-8; Biosharp, China) was used to assess the rate of cellular proliferation and quantify cell viability. In brief, HaCaT cells were seeded in 96-well plates with 100 μL of medium at a density of 1 × 10^4 cells per well. After incubation of cells overnight, peptides were added into the medium for another 24 h incubation. Then, 10 μL of CCK8 solution was applied to each well and incubated for 1 h at 37 °C. Finally, the absorbance values at 450 nm were determined using a microplate reader (SYNERGY-H1, BioTek, USA). Two columns of the plate were kept for negative control (medium only) and growth control (medium with HaCaT cell). All experiments were conducted in triplicate.

[2] = tested on: C. acnes (BNCC 336649); details: for Concentration with antimicrobial activity >50%: C. acnes; for Concentration with antimicrobial activity >50% / Category of in vitro test antimicrobial activity against C. acnes: supplementary Table 5; for Antimicrobial activity > 50% against C. acnes: broth microdilution, 48 h, OD 630 nm
Method: The strain of C. acnes (BNCC 336649) was cultured in Wilkins-Chalgren Anaerobe Broth (QingDao RiShui Bio-technologies, 11071) at 37 °C under an anaerobic atmosphere performed by a Labiophy HL-B automatic hypoxic workstation (Dalian, Liaoning Province, Labiophy HL-B), inflated with a gas mix of 15% carbon dioxide, 83% nitrogen, and 2% hydrogen.
Logarithmic phase growth bacteria were used for antimicrobial testing.
To determine the MIC values, the broth microdilution method was used. […] Briefly, peptide samples were prepared as a stock solution in water and then diluted. 180 μL of the bacterial suspension (10^7 CFU/mL) and 20 μL of the tested sample were added together into 96-Well Deep Well Plates and incubated 24 h for E. coli and S. aureus or 48 h for C. acnes and C. albicans. For each test, two columns of the plate were kept for sterility control (broth only) and growth control (broth with bacterial inoculums, no antibiotics). The optical density of cultures was measured at 630 nm by a microplate reader (SYNERGY-H1, BioTek, USA) to estimate bacterial growth. All experiments were conducted in triplicate. We used ciprofloxacin (CPFX) as the antibiotic control for antimicrobial testing.

[3] = tested on: rabbit red blood cells (rRBCs); assay: Hemolytic activity assay; assay type: cell-based
Method: The hemolytic activity of peptides was assayed on rabbit red blood cells (rRBCs)[43]. Briefly, 2% rRBCs (150 μL) were incubated in the presence of various peptide concentrations (50 μL) at 37 °C for 2 h. After centrifugation, the supernatants were collected for measuring absorbance at 545 nm. PBS and 0.01% Triton X-100 were used as the negative (no hemolysis) and positive (100% hemolysis) control, respectively. Triplicate tests were performed.

Row | Substance | HaCaT cell tolerance up to [1] | Cytotoxic Index [1] | Hemolysis Index [3] | also measured
1 | KKLACRLWKWLAKKA [AMP-21] | 80 µg/mL |  |  | Concentration with antimicrobial activity >50% [2]: 12.5 µg/mL; Antimicrobial activity > 50% against C. acnes ([2]; at 25 µg/mL): Inhibit (A peptide was deemed to have antimicrobial activity if C. acnes growth was inhibited by more than 50% at a given concentration); Antimicrobial activity > 50% against C. acnes ([2]; at 50 µg/mL): Inhibit (A peptide was deemed to have antimicrobial activity if C. acnes growth was inhibited by more than 50% at a given concentration); Antimicrobial activity > 50% against C. acnes ([2]; at 100 µg/mL): Inhibit (A peptide was deemed to have antimicrobial activity if C. acnes growth was inhibited by more than 50% at a given concentration); Category of in vitro test antimicrobial activity against C. acnes [2]: Strong AMP
2 | KILGKLLKWASKIW [AMP-31] |  | 8 | 20 | 
3 | KRIVHRLLKKLHSLF [AMP-9] | 160 µg/mL | 20 | 30 | 
4 | GIFKKITGKLFKWIK [AMP-5] | 80 µg/mL | 10 | 30 | 
5 | KKWRKVLKLIKRLVG-NH2 [AMP-12] |  | 16 | 40 | 
6 | GVFDWLKKLGKKLAG [AMP-14] | 80 µg/mL |  |  | Concentration with antimicrobial activity >50% [2]: 12.5 µg/mL; Antimicrobial activity > 50% against C. acnes ([2]; at 25 µg/mL): Inhibit (A peptide was deemed to have antimicrobial activity if C. acnes growth was inhibited by more than 50% at a given concentration); Antimicrobial activity > 50% against C. acnes ([2]; at 50 µg/mL): Inhibit (A peptide was deemed to have antimicrobial activity if C. acnes growth was inhibited by more than 50% at a given concentration); Antimicrobial activity > 50% against C. acnes ([2]; at 100 µg/mL): Inhibit (A peptide was deemed to have antimicrobial activity if C. acnes growth was inhibited by more than 50% at a given concentration); Category of in vitro test antimicrobial activity against C. acnes [2]: Strong AMP
7 | AKRIVKLIKNFFRKL-NH2 [AMP-25] | 80 µg/mL | 20 | 60 | 
8 | FKRLKKLFKKIWNWK [HPA3NT3, reference compound] |  |  |  | Cytotoxic Index ([1]; ratio of EC90 (HaCaT) to MIC of C. acnes): 8; Hemolysis Index ([3]; ratio of EC90 (rabbit red blood cells) to MIC of C. acnes): 32
9 | LSKWLKKLGKLLAG [AMP-33] | 80 µg/mL | 20 | 20 | 
10 | GWAKRLATRLAKAIL-NH2 [AMP-27] | 320 µg/mL | 12.8 | 6.4 | 
11 | KKIFKRIVKIIKRLL [AMP-29] |  | 16 | 32 | 
12 | HFLGVVAKLVSKLF [AMP-38] | 80 µg/mL | 10 | 16 | 
